The conditions of data set [1]: read-out: Kd (dissociation constant of the dye); cited from earlier work.
Data set [2] concerns U87 human glioma cells. To be noted: in vitro, dose-dependently, 0.01 up to 9 μM; cited from earlier work.
The subject of data set [3] is U87 human glioma cell line. To be noted: cited from earlier work.
Data set [4] relates to U373 human glioma cell line. Conditions: cited from earlier work.
Data set [5] relates to U87 human glioma cells. To be noted: mouse, in vivo; cited from earlier work.
Another data set concerns U-87 MG glioma cell. Kind of data set: single-cell microfluidic intracellular calcium bioassay (Fluo-4 fluorescence). Conditions: for [Ca^2+]i: single U-87 MG cell, calculated from fluorescence by eq. 1. The method, then:
The current study was designed to investigate the pharmacological potential of CBD on calcium uptake in U87MG glioma cells by a method using a single-cell microfluidic approach.
The glass chip was fabricated through the standard micromachining processes at Canadian Microelectronic Corporation (CMC) by a process that includes standard chip cleaning, thin film deposition, photolithography, photoresist development, hydrofluoric acid wet etching, reservoir forming, and chip bonding, as previously reported (Li et al. 2005). The chip design is shown in FIG. 9, consisting of three reservoirs, three channels and one chamber containing the cell retention structure to isolate the single cell. Reservoir 1 was used for cell introduction and washing, reservoir 2 was used for reagent delivery, and reservoir 3 was a waste reservoir. The channel was 40 μm deep, while the reservoirs were 600 μm deep and 2.5 mm in diameter.
A fluorescent calcium probe, Fluo-4 AM ester (50 μg, special packaging, Molecular Probes, Eugene, Oreg.) was first dissolved in 50 μL of dimethyl sulfoxide (DMSO, 99.9%, Sigma-Aldrich, St. Louis, Mo.) to make a stock solution of 1 μg/μL. Before use, it was freshly diluted in Hanks' balanced salt solution (HBSS, Invitrogen Corp., Grand Island, N.Y.) to make a 5.0 μM working solution. Due to light sensitivity of Fluo-4 AM, it must be stored in the dark at −20° C. Cannabidiol (CBD) was purchased from Cerilliant Corporation (Round Rock, Tex.) as drug enforcement agency-exempt solution, i.e. 1 mg/mL solution in methanol (MeOH). Trypan blue solutions (4%) were purchased from Sigma-Aldrich (St. Louis, Mo.). RPMI 1640 medium solution, trypsin-ethylenediaminetetraacetic acid (Trypsin-EDTA) (0.025%), penicillin-streptomycin and fetal bovine serum (FBS) were obtained from Life Technologies (Grand Island, N.Y.). lonomycin (Calcium salt, Sigma Chemical Co.) was used to saturate the Ca^2+-Fluo-4 fluorescence within the cells. Ionomycin was dissolved in DMSO to make the stock solution which was finally diluted in HBSS containing 1 mM CaCl2 to make working solutions. The glioma cells (U-87 MG) were obtained from ATCC (Manassas, Va.). The cells were maintained in the RPMI medium with 10% fetal bovine serum and 1% penicillin in a 5% CO2 atmosphere at 37° C. and were passaged twice a week.
An optical imaging and fluorescent measurement system was used, as previously described (Li et al., 2009). Briefly, an inverted microscope (TE300, Nikon, Mississauga, ON, Canada) was connected to a video camera (JVC, TK-C3180). A TV set was used for optical observation (FIG. 2). By using a dichroic filter (620 nm), only red light entered the video camera for cell imaging without interfering with the fluorescent measurement. The green fluorescent emission (535 nm) was achieved under the Xenon arc lamp excitation (480 nm) selected by the microphotometer system (PTI) through a detection aperture. The chip was translated back and forth manually so the cellular fluorescence or background signal could be measured.
Before running any experiment, the microfluidic chip was cleaned by soap solution (2 times), rinsed with deionized water (3 to 5 times), and sterilized with 75% ethanol (1 time). After the cleaning step, […] of a cell suspension was introduced into the cell inlet from reservoir 1, the cells flowed from the left to right across the cell retention structure. By adjusting the liquid levels of the right […] (waste) and the left reservoir 1 (cell inlet), a desired U-87 MG cell was slowed down near the entrance of the cell retention structure. As the glioma cell is adherent, it readily becomes stationary to maintain its location in the retention structure. The glioma cell was allowed to settle for about 15 minutes, during which it was attached to the glass chip surface before the fluorescence measurement started.

Molecules are shown by their SMILES.

By Kd is commonly meant the concentration at which binding is half-saturated. As to `Cc1ccc(N(CC(=O)O)CC(=O)O)c(OCCOc2cc(-c3c4cc(F)c(=O)cc-4oc4cc(O)c(F)cc34)ccc2N(CC(=O)O)CC(=O)O)c1` [Fluo-4], the dissociation constant (Kd) in data set [1] was 350 nM.

With `C=C(C)[C@@H]1CCC(C)=C[C@H]1c1c(O)cc(CCCCC)cc1O` [CBD, cannabidiol], in the data set with U87 human glioma cells [2], the “translocation of U87 human glioma cells” value is given as “inhibited”. Also, the mitochondrial oxidative metabolism entry in data set [3] (CBD exposure to cells) is “reduced”. The antiproliferative effect entry in data set [3] (U87) and in data set [4] was “antiproliferative effects” in each case. Further, the “viability of U87 human glioma cells in mice” value with U87 human glioma cells [5] was “prohibited”. The “change of [Ca^2+]i (FIG. 10)” value is “increased slightly” in the data set with U-87 MG glioma cell (9.5 μM CBD) and “significantly increased” with U-87 MG glioma cell (19 μM CBD compared to 9.5 μM). The “concentration dependence of intracellular [Ca^2+]i increase” value in the data set on U-87 MG glioma cell (CBD 9.5 and 19 μM) was “concentration-dependent manner”. In the data set with U-87 MG glioma cell (after 9.5 and 19 μM CBD and ionomycin), the “cell viability by trypan blue at end of experiment” value is reported as “not dead”. Further, the “[Ca^2+]i” value in the data set with U-87 MG glioma cell (after 9.5 μM CBD) was 47.9 nM; with U-87 MG glioma cell (after 19 μM CBD) it was 913 nM.

Consider `C=CC(=C)CCC=C(C)C` [myrcene], for which the cell calcium response entry with U-87 MG glioma cell (10 μM, data not shown) was “not detectable”. Besides, in the data set with U-87 MG glioma cell (20 μM, alone), the “cell calcium response (FIG. 11)” value is listed as “a little cell calcium response”.

As to `C[C@H](CCC(=O)O)C[C@H](C)C[C@H](C)C(=O)/C=C(\O)[C@H](C)C[C@H](C)C/C=C/[C@@H](C)[C@@H](O)[C@@H](C)[C@@H](O)C[C@@H]1CC[C@@](C)([C@H]2CC[C@@](C)([C@@H](C)O)O2)O1` [ionomycin, Ionomycin], in the data set on U-87 MG glioma cell (10 μM ionomycin, at ~6000 s), the “fluorescence response after ionomycin (Fmax)” value is on record as “obvious fluorescence peak”.
